These results are taken from patent US6958145B2, “Synthesis of cyclic compounds” (Unisearch Limited, priority 2000, dated 2005).

Assay [1] has as its system AI-2 activity. Nature of the assay: V. harveyi bioassay for the detection of AI-2 activity. In kind it is cell-based. As to conditions: V. harveyi BB170 luminescence. The protocol:
The V. harveyi bioassay was performed as described previously (Surette and Bassler, 1998). The V. harveyi reporter strain BB170 was grown for 16 hours at 30° C. with shaking in AB medium. Cells were diluted 1:5,000 into 30° C. prewarmed AB medium and 90 ul of the diluted suspension was added to wells containing supernatant. Furanones were added to the wells to achieve the desired final concentrations and the final volume in each well was adjusted with sterile medium to 100 ul. Ten ul of V. harveyi BB152 (AI-1−, AI-2+) supernatant was used as a positive control and 10 ul of E. coli DH5α supernatant or sterile media was used as a negative control. […] The microtiter plates were incubated at 30° C. with shaking at 175 rpm. Hourly determinations of the total luminescence were quantified using the chemiluminescent setting on a Wallac (Gaithersburg, Md.) model 1450 Microbeta Plus liquid scintillation counter. The V. harveyi cell density was monitored by the use of a microplate reader (Bio-Rad, Hercules, Calif.). Activity is reported as the percentage of activity obtained from V. harveyi BB152 cell-free supernatant. While the absolute values of luminescence varied considerably between experiments, the pattern of results obtained was reproducible.

Assay [2] concerns two-component signal transduction. Nature of the assay: Taz-1 assay, two-component signal transduction. As to conditions: beta-galactosidase readout. In kind it is cell-based, E. coli. The protocol:
The Taz-assay carried out according to the method of Jin and Inouye (1993) with the following alterations. E. coli RU1012 (pYT0301) were grown overnight in M9 medium at 37° C. supplemented with 100 ug/ml ampicillin and 50 ug/ml kanamycin. This overnight culture was then used to inoculate 50 ml M9 medium in side-arm flasks which were then incubated at 37° C. and shaken at 180 rpm. The OD610 of the growing cultures was monitored regularly and when the OD610=0.2 the cultures were placed on ice. Aspartate was added to side-arm flasks to give a final concentration of 3 mM (aspartate stock solution made up in M9 salts).
The test compound or mixtures of compounds were dissolved in ethanol and added to cultures to give the required final concentrations. Negative controls were prepared with equal volumes of ethanol. Cultures were then placed in a 37° C. incubator and shaken for 4 hours (OD610 approximately 0.7) before being removed and put on ice. Samples were then removed for […]eta-galactosidase assays carried out according to the method of Miller (1972).

Assay [3] deals with AHL mediated quorum sensing.

Turning to `CC1=CC(=O)OC1(Br)C(Br)Br` (stereo not shown) [compound 72], in assay [1], the “AI-2 (AI-2 activity)” value is listed as 97% reduction.

With `CC1=CC(=C(Br)Br)OC1=O` [compound 64], the “AI-2 (AI-2 activity)” value in assay [1] worked out at 80% reduction. Further, in assay [2], the “2 component (two-component signal transduction assay)” value is on record as “No effect”. Besides, the “AHL (inhibitor of AHL-mediated quorum sensing)” value in assay [3] is “good”.
